From patent US20210322346A1, “CHEMICALLY MODIFIED CURCUMINS FOR USE IN THE PRODUCTION OF LIPOXINS” (The Research Foundation for The State University of New York, priority 2015, published 2021)

Tests used:
[1] = tested on: elastase/LPS-treated COPD mice; experiment: Morphometry: mean linear intercept (chord length) in COPD mice; format: in vivo, mouse; conditions: oral gavage for seven days, control 33, COPD 54
Experimental: Elastase and LPS exposure: A total of 180 male and 180 female WT mice (8-12 weeks old) were used for all experiments. Experiments were performed in triplicate for each group of age- and gender-matched mice. Animals were exposed by the intranasal route to 10 μl saline containing 1.2 units of porcine pancreatic elastase (Elastin Products, Owensville, Mo.) on Tuesday and 10 μl saline containing 7 μg (−70 endotoxin units) of LPS from Escherichia coli O26:B6 (Sigma-Aldrich, St. Louis, Mo.) on Friday of each week for four consecutive weeks.
3 mg of CMC2.24 powder were dissolved in 1 mL suspension of 2% Carboxymethyl cellulose vehicle for the daily oral administration of CMC2.24 (40 mg/kg). Vehicle alone was administered to the control group. Both CMC2.24 and vehicle control were administered once daily over the 7-day protocol by gavage (Zhang, Y. et al. 2010; Elburki, M. S. et al. 2014).
Morphometry—Air Space Enlargement: In an effort to quantitate alveolar air space enlargement, the Mean Linear Intercept (MLI) was implemented. […] Afterwards, seven equally spaced lines were then drawn within the guard zone, and directly measured by manual use of a ruler. Starting from the left, the line was scanned for any intersections with the alveolar walls and measured until the following intersection with the alveolar surface on the right. […]

Lipoxin A4 = Lipoxin A4 ELISA in macrophage conditioned media, CFE and serum of diabetic rats; format: in vivo, rat; conditions: STZ-diabetic rats, 30 mg/kg oral once per day for 3 weeks
Experimental: (§1) Adult rats were made diabetic by I.V. injection of streptozotocin; non-diabetic rats served as controls (n=6 rats per group; all groups). Half of the diabetics (blood glucose >500 mg/dl) were orally administered CMC2.24 (30 mg/kg) once per day for 3 weeks; untreated diabetics (D) and N rats received vehicle alone. PEs were collected at time=0 (ie, before thioglycollate injection into peritoneal cavity). Resident macrophages were isolated from PEs, then incubated in cell culture for 13 hours (370 C; 95% air/5% CO2 atmosphere). Lipoxin A4 levels were measured by ELISA (a) in cell culture serum-free conditioned media; (b) in the cell-free exudates (CFEs); and (c) in serum.

[2] = tested on: IL-1β relative to lipoxin A4; experiment: Experiment A: IL-1β and lipoxin A4 secreted by macrophages from treated diabetic rats; format: in vivo, rat; conditions: 30 mg/kg oral once per day for 21 days, compared to untreated diabetics
Experimental: In an in vivo experiment, three groups of adult male rats were established including non-diabetic controls (NDC group; n=6 rats/group); rats that were made diabetic and severely hyperglycemic by STZ injection (D+vehicle group; n=6 rats/group), and a 3rd group of rats (n=6 rats/group) in which the diabetics were orally administered CMC2.24 (30 mg/kg body weight) once per day for 21 days. At the end of the protocol, the rats were sacrificed and the peritoneal cells were collected by washing with cold 15 ml phosphate buffered saline/EDTA, The macrophages were harvested from the peritoneal wash from each rat, after 2 hours of adherence to culture plates (sterile conditions), the cells were counted and then incubated for 18 h at 37° C. in an atmosphere of 95% air/5% CO2. The conditioned media was then collected and analyzed for the resolvin, lipoxin A4, and for two inflammatory cytokines, IL-1β and IL-6. The data is expressed as a ratio of […] (pg/ml) relative to resolvin (ng/ml) secreted by the macrophages from the three experimental groups (FIG. 45A).

[3] = tested on: S. aureus-infected hTG SP-B mice; experiment: Mortality in S. aureus pneumonia in hTG SP-B mice; format: in vivo, mouse; conditions: 50 mg/kg daily
Experimental: S. aureus-induced pneumonia model: Pilot experiments were performed to establish the S. aureus Xen36 pneumonia model using different doses of bacteria to infect mouse lung. […] Therefore, direct intratracheal inoculation of bioluminescent S. aureus Xen36 at a dose of 5×10^8/50 μl was used to infect mice in all subsequent experiment (Farnsworth, C. W. et al. 2015; Schriever, M. P. et al. 2011). In brief, hTG SP-B mice between 8 and 12 weeks old were anesthetized using intraperitoneal ketamine/xylazine (90 mg/kg ketamine, 10 mg/kg xylazine) injection. A 0.3-cm mid-line neck incision was made to expose the trachea. In the sham group, 50 μl of sterile vehicle was injected into the trachea by the same method. After infection, bio-luminescence signal was observed and quantified by an in vivo imaging system. (Xenogen-200 series, Caliper Life Sciences, Hopkinton, Mass.). Buprenorphine (0.05 mg/kg body weight) was injected for postoperative analgesia every 8-12 hrs. Mice were returned to their cages in a temperature-controlled room. (22. ° C.) with 12-h light and dark cycles and monitored every 4 h. Mice were anesthetized with isoflurane (2%) at several time points after infection (0 h, 12 h, 24 h, 28 h, 32 h, and 48 h) (Pribaz, J. R. et al, 2012; Guo, Y, et al, 2013). At 48 h after S. aureus infection, nice were sacrificed under anesthesia. […]

[4] = tested on: primary alveolar macrophages; experiment: Cell viability by CCK-8 assay in primary alveolar macrophages; format: cell-based; conditions: 1 to 80 μM, 24 h
Experimental: (§2) Human lung epithelial cell line (A549) and primary alveolar macrophage cell culture: Human lung epithelial cell line (A549, ATCC #CCL-185) was purchased from ATCC (Manassas, Va.); and primary alveolar macrophages were prepared from healthy adult animals (swine). A549 cells and primary alveolar macrophages were cultured in RPMI Media 1640 medium supplemented with 10% (v/v) FBS, 1% (v/v) L-glutamine (200 mM) and 1% (v/v) Antibiotic-Antimycotic antibiotics at 37° C. in a humidified 5% CO2 incubator.
(§3) CMC 2.24 treatment and PM2.5 exposure: The cells were subcultured when cells were grown to about 70% confluency. […]
(§4) Analysis of cell viability by CCK-8 assay: In order to study the effect of CMC2.24 in A549 cells and primary alveolar macrophages after PM2.5 exposure, cell viability was determined using Cell Counting Kit (CCK)-8 kit (Sigma-Aldrich, MO, USA) according to the manufacturer's instructions, A549 cells (0.5×10^4/well) and primary macrophages (1×10^4/well) were cultured in 96-well plates for 24 h and 6 h, respectively; the cells were then exposed to various concentrations of CMC 2.24 (i.e. 0, 1, 5, 10, 20, 30, 40, and 80 μM of CMC 2.24) in the presence or absence of 100 μg/ml PM2.5 in the media for 24 h. […] Then optical density value was measured at 450 nm using a microplate reader (Multiskan Ascent, Thermo Lab systems). […]

[5] = cell and tissue culture, in vivo studies; cited from earlier work
[6] = cited from earlier work
Lipoxin B4 = Lipoxin B4 ELISA in macrophage conditioned media, CFE and serum of diabetic rats; format: in vivo, rat; conditions: STZ-diabetic rats, 30 mg/kg oral once per day for 3 weeks
Experimental: as §1, with “18” for “13”, “B4” for “A4”

[7] = tested on: Human lung epithelial cell line (A549); experiment: Cell viability by CCK-8 assay in A549 cells; format: cell-based; conditions: 1 to 80 μM, 24 h
Experimental: as §2, §3, §4

[8] = tested on: IL-6 relative to lipoxin A4; experiment: Experiment B: IL-6/lipoxin A4 ratio in LPS-exposed macrophages in culture; format: cell-based, rat; conditions: LPS (100 ng/ml)-exposed macrophages, CMC2.24 5 μM
Experimental: (§5) In the second experiment, macrophages (chronic inflammatory cells), were collected and counted from the peritoneal washes of the six non-diabetic control rats. These cells were then pooled and incubated under different in vitro conditions including: group 1, control Møs; group 2, Møs incubated with lipopolysaccharide (LPS)/endotoxin at 100 ng/ml, final concentration, added to the culture media; group 3, Møs exposed to LPS but treated with CMC2.24 at a final concentration of 2 μM; and group 4, like group 3 except that CMC2.24 was increased to 5 μM (note that in this cell culture experiment, sufficient IL-6 was secreted by the LPS-exposed Møs unlike Experiment A, above).

[9] = tested on: IL-1β relative to lipoxin A4; experiment: Experiment B: IL-1β/lipoxin A4 ratio in LPS-exposed macrophages in culture; format: cell-based, rat; conditions: LPS (100 ng/ml)-exposed macrophages, CMC2.24 5 μM
Experimental: as §5

Solubility = format: physicochemical
[10] = rats with pathologically excessive MMPs, doses as high as 500 mg/kg of body weight; cited from earlier work

With `O=C(/C=C/c1ccc(O)cc1)C(C(=O)/C=C/c1ccc(O)cc1)C(=O)Nc1ccccc1` [CMC2.24] the average chord length (mean linear intercept) [1] was 35 µm, the “increase of Lipoxin A4 in rat serum” value (Lipoxin A4) was 15.5% and the “increase of Lipoxin A4 in resident peritoneal cell-free exudates” value (Lipoxin A4) was 80.6%. The “increase of Lipoxin A4 secretion by resident peritoneal macrophages” value (Lipoxin A4; vs untreated diabetics) was 12.7%, the “reduction of ratio IL-1β relative to lipoxin A4 secreted by macrophages” value [2] was 85.3% and the mortality rate ([3]; infected SP-B-C mice, control 76%, p<0.05) was 50%. The mortality rate ([3]; infected SP-B-T mice, control 33%) was 32%, the “cell viability (CCK-8), compound alone” value [4] was “did not influence cell viability” and the “toxicity compared to the parent compound” value [5] was “even less toxicity”. For the same molecule, the “solubility relative to curcumin” value [6] was “improved solubility”, the “increase of Lipoxin B4 secretion by resident peritoneal macrophages” value (Lipoxin B4) was 12.7% and the “cell viability (CCK-8), compound alone” value [7] was “did not influence cell viability”. For the same molecule, the “reduction of IL-6/lipoxin A4 ratio” value [8] was 86%, the “reduction of IL-1β/lipoxin A4 ratio” value [9] was 93.8% and the “solubility relative to CMC2.5” value (Solubility) was “improved solubility”. For the same molecule, the “toxicity on oral gavage” value [10] was “no evidence of toxicity”.
